From the supplement of paper PMC10307832

What was measured:
Experiment in all cases: relative viability (nuclei count vs DMSO), 5 days (fraction); higher = more cells survive
NCI-H2228 = tested on: NCI-H2228
Summary of the method: (§1)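 Cells from lung cancer lines were seeded into 1536-well plates and, one day later, dosed by pin tool. Treatments were either a single drug or a fixed dose of an anchor drug with five library-drug doses (not always all listed) in √10 steps. After 5 days, nuclei were stained in a one-step fixation (final 0.05% Triton X-100, 1% formaldehyde, 1 ug/ml Hoechst) and counted on 4× images, and relative viability is the treated-to-vehicle nuclei ratio, as the median of duplicate plates.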

EMC-BAC-2 = tested on: EMC-BAC-2
Summary of the method: as §1

NCI-H1944 = tested on: NCI-H1944
Summary of the method: as §1

A-427 = tested on: A-427
Summary of the method: as §1

NCI-H2170 = tested on: NCI-H2170
Summary of the method: as §1

NCI-H2009 = tested on: NCI-H2009
Summary of the method: as §1

PC-3 [JPC-3] = tested on: PC-3 [JPC-3]
Summary of the method: as §1

NCI-H596 = tested on: NCI-H596
Summary of the method: as §1

HOP-62 = tested on: HOP-62
Summary of the method: as §1

NCI-H1792 = tested on: NCI-H1792
Summary of the method: as §1

LK-2 = tested on: LK-2
Summary of the method: as §1

HARA = tested on: HARA
Summary of the method: as §1

LXF-289 = tested on: LXF-289
Summary of the method: as §1

NCI-H322M = tested on: NCI-H322M
Summary of the method: as §1

NCI-H3122 = tested on: NCI-H3122
Summary of the method: as §1

ABC-1 = tested on: ABC-1
Summary of the method: as §1

SK-MES-1 = tested on: SK-MES-1
Summary of the method: as §1

NCI-H727 = tested on: NCI-H727
Summary of the method: as §1

NCI-H1993 = tested on: NCI-H1993
Summary of the method: as §1

SW 1573 = tested on: SW 1573
Summary of the method: as §1

COc1nc(C)cnc1NS(=O)(=O)c1cccnc1-c1ccc(-c2nnco2)cc1 [Zibotentan] + CS(=O)(=O)CCNCc1ccc(-c2ccc3ncnc(Nc4ccc(OCc5cccc(F)c5)c(Cl)c4)c3c2)o1 [Lapatinib] (partner 2 µM)
relative viability (NCI-H2228; first compound 0.08 µM): 1.41 | relative viability (NCI-H2228; first compound 0.253 µM): 1 | relative viability (NCI-H2228; first compound 0.8 µM): 0.989 | relative viability (NCI-H2228; first compound 2.53 µM): 1.1 | relative viability (EMC-BAC-2; first compound 0.08 µM): 0.958 | relative viability (EMC-BAC-2; first compound 0.253 µM): 0.805 | relative viability (EMC-BAC-2; first compound 0.8 µM): 0.873 | relative viability (EMC-BAC-2; first compound 2.53 µM): 0.858 | relative viability (NCI-H1944; first compound 0.08 µM): 1.06 | relative viability (NCI-H1944; first compound 0.253 µM): 0.7 | relative viability (NCI-H1944; first compound 0.8 µM): 0.747 | relative viability (NCI-H1944; first compound 2.53 µM): 0.762 | relative viability (A-427; first compound 0.08 µM): 1.08 | relative viability (A-427; first compound 0.253 µM): 1.06 | relative viability (A-427; first compound 0.8 µM): 1.05 | relative viability (A-427; first compound 2.53 µM): 0.984 | relative viability (NCI-H2170; first compound 0.08 µM): 0.27 | relative viability (NCI-H2170; first compound 0.253 µM): 0.264 | relative viability (NCI-H2170; first compound 0.8 µM): 0.251 | relative viability (NCI-H2170; first compound 2.53 µM): 0.285 | relative viability (NCI-H2009; first compound 0.08 µM): 0.921 | relative viability (NCI-H2009; first compound 0.253 µM): 0.82 | relative viability (NCI-H2009; first compound 0.8 µM): 1 | relative viability (NCI-H2009; first compound 2.53 µM): 1.02 | relative viability (PC-3 [JPC-3]; first compound 0.08 µM): 0.444 | relative viability (PC-3 [JPC-3]; first compound 0.253 µM): 0.458 | relative viability (PC-3 [JPC-3]; first compound 0.8 µM): 0.421 | relative viability (PC-3 [JPC-3]; first compound 2.53 µM): 0.48 | relative viability (NCI-H596; first compound 0.08 µM): 1.03 | relative viability (NCI-H596; first compound 0.253 µM): 1.12 | relative viability (NCI-H596; first compound 0.8 µM): 1.08 | relative viability (NCI-H596; first compound 2.53 µM): 1.08 | relative viability (HOP-62; first compound 0.08 µM): 0.957 | relative viability (HOP-62; first compound 0.253 µM): 1.12 | relative viability (HOP-62; first compound 0.8 µM): 1.22 | relative viability (HOP-62; first compound 2.53 µM): 1.25 | relative viability (NCI-H1792; first compound 0.08 µM): 1.01 | relative viability (NCI-H1792; first compound 0.253 µM): 0.896 | relative viability (NCI-H1792; first compound 0.8 µM): 0.816 | relative viability (NCI-H1792; first compound 2.53 µM): 0.848 | relative viability (LK-2; first compound 0.08 µM): 1.02 | relative viability (LK-2; first compound 0.253 µM): 0.885 | relative viability (LK-2; first compound 0.8 µM): 0.917 | relative viability (LK-2; first compound 2.53 µM): 0.986 | relative viability (HARA; first compound 0.08 µM): 0.734 | relative viability (HARA; first compound 0.253 µM): 0.813 | relative viability (HARA; first compound 0.8 µM): 0.742 | relative viability (HARA; first compound 2.53 µM): 0.837 | relative viability (LXF-289; first compound 0.08 µM): 0.873 | relative viability (LXF-289; first compound 0.253 µM): 0.886 | relative viability (LXF-289; first compound 0.8 µM): 0.93 | relative viability (LXF-289; first compound 2.53 µM): 0.878 | relative viability (NCI-H322M; first compound 0.08 µM): 0.553 | relative viability (NCI-H322M; first compound 0.253 µM): 0.621 | relative viability (NCI-H322M; first compound 0.8 µM): 0.582 | relative viability (NCI-H322M; first compound 2.53 µM): 0.624 | relative viability (NCI-H3122; first compound 0.08 µM): 0.99 | relative viability (NCI-H3122; first compound 0.253 µM): 1.03 | relative viability (NCI-H3122; first compound 0.8 µM): 1.03 | relative viability (NCI-H3122; first compound 2.53 µM): 1.01 | relative viability (ABC-1; first compound 0.08 µM): 1.28 | relative viability (ABC-1; first compound 0.253 µM): 0.885 | relative viability (ABC-1; first compound 0.8 µM): 0.971 | relative viability (ABC-1; first compound 2.53 µM): 1.28 | relative viability (SK-MES-1; first compound 0.08 µM): 0.505 | relative viability (SK-MES-1; first compound 0.253 µM): 0.453 | relative viability (SK-MES-1; first compound 0.8 µM): 0.498 | relative viability (SK-MES-1; first compound 2.53 µM): 0.509 | relative viability (NCI-H727; first compound 0.08 µM): 0.879 | relative viability (NCI-H727; first compound 0.253 µM): 0.739 | relative viability (NCI-H727; first compound 0.8 µM): 0.781 | relative viability (NCI-H727; first compound 2.53 µM): 1.16 | relative viability (NCI-H1993; first compound 0.253 µM): 0.792 | relative viability (NCI-H1993; first compound 0.8 µM): 0.88 | relative viability (NCI-H1993; first compound 2.53 µM): 0.768 | relative viability (SW 1573; first compound 0.08 µM): 1.18 | relative viability (SW 1573; first compound 0.253 µM): 1.11 | relative viability (SW 1573; first compound 0.8 µM): 1.2 | relative viability (SW 1573; first compound 2.53 µM): 1.14
